Measured values reported in US20240245603A1, “HIGH LOADING ORAL FILM FORMULATION” (INTELGENX CORP., priority 2021, published 2024).

Key:
[1] = Solubility studies of Maropitant in solvents and solubility enhancers (visual inspection); assay type: physicochemical
Method: The following solubility studies were performed with Maropitant drug substance in various solvents and solubility enhancers. […] During solubility studies, the API was solubilized stepwise, in a series of permitted solvent (or a combination of solvent) with and without solubility enhancer. The solvent system was based on methanol, ethanol, isopropyl alcohol (IPA), acetone, methyl ethyl ketone (MEK), and water. Solubility enhancers included Maiscine CC (MGO) (HLB 1), medium chain triglyceride (MCT) oil (HLB 1), Labrafil 1944 cs (HLB 9), Labrafil 2125CS (HLB 9), Glycerine, Tween 20 (HLB 16,7), PEG 300, Propylene glycol, SLS (HLB 40). The resulting mixture was visually inspected to evaluate solubilization. The main equipment used were glass bottles, magnetic stir bars, stirrer plate, and sonicator.

[2] = Permeability of Maropitant through artificial membranes, Franz cell model; assay type: in vitro ADME
Method: Numerous experiments were performed to improve the permeability of Maropitant through artificial membranes using the Franz cell model. Initially, solutions and suspensions of Maropitant and different acids at different ratios were prepared.
Based on the results obtained with the solution/suspension of Maropitant at different pH, Maropitant oral films with and without citric acid were prepared.

[3] = cited from earlier work

COc1ccc(C(C)(C)C)cc1CN[C@H]1C2CCN(CC2)[C@H]1C(c1ccccc1)c1ccccc1 [Maropitant]
Solubility ([1]; Test 1, media Methanol): Up to 30 mg/1 g of solvent
Solubility ([1]; Test 2, media Ethanol): Up to 15 mg/1 g of solvent
Solubility ([1]; Test 3, media Isopropanol): insoluble
Solubility ([1]; Test 4, media Acetone): Up to 120 mg/1 g of solvent
Solubility ([1]; Test 5, media MEK): Up to 150 mg/1 g of solvent
Solubility ([1]; Test 6, MEK:Maiscine CC 40:2): Up to 180 mg/1 g of solvent
Solubility ([1]; Test 7, MEK:Maiscine CC 40:3): Up to 220 mg/1 g of solvent
Solubility ([1]; Test 8, MEK:MCT 40:2): Up to 220 mg/1 g of solvent
Solubility ([1]; Test 9, MEK:MCT 40:3): Up to 240 mg/1 g of solvent
Solubility ([1]; Test 10, MEK:PEG 300 40:2): Up to 180 mg/1 g of solvent
Solubility ([1]; Test 11, MEK:MCT:PEG 300 40:3:2): Up to 240 mg/1 g of solvent
Solubility ([1]; Test 12, MEK:Labrafil 1944CS 40:2): Up to 220 mg/1 g of solvent
Solubility ([1]; Test 13, MEK:Labrafil 1944CS:MCT 40:3:2): Up to 220 mg/1 g of solvent
Solubility ([1]; Test 14, MEK:Labrafil 1944CS:PEG 300 40:3:2): Up to 220 mg/1 g of solvent
Solubility ([1]; Test 15, MEK:Glycerine 40:2): Up to 135 mg/1 g of solvent
Solubility ([1]; Test 16, MEK:Tween 20 40:2): Up to 180 mg/1 g of solvent
Solubility ([1]; Test 17, MEK:Methanol 40:10): Up to 155 mg/1 g of solvent
Solubility ([1]; Test 18, MEK:Methanol:MCT 40:10:3): Up to 235 mg/1 g of solvent
Solubility ([1]; Test 19, MEK:Water 40:4.5): insoluble
Solubility ([1]; Test 20, MEK:Methanol:Labrafil 2125CCS:Tween 20 40:10:4:4): Up to 317 mg/1 g of solvent
permeation of Maropitant solutions/suspensions at different pH ([2]; Maropitant/citric acid pH 4.24, 5.22, 6.22 and phosphate citrate buffer pH 8.0, FIG. 9): acidic environment promotes Maropitant permeation
Maropitant permeability of films with versus without citric acid ([2]; oral films with and without citric acid): improved

CN1CC(=O)N2[C@H](c3ccc4c(c3)OCO4)c3[nH]c4ccccc4c3C[C@@H]2C1=O [Tadalafil]
solubility in water [3]: practically insoluble
